Reference: patent US20260061084A1, “FIBROBLAST ACTIVATION PROTEIN (FAP) INHIBITORS, FAP CONJUGATES, AND DIAGNOSTIC AND THERAPEUTIC USES THEREOF” (Nuclidium AG, priority 2022, published 2026)

Columns and labels:
[1] = test system: HT-1080.hFAP (FAP-positive) cells; assay: In vitro cellular uptake (cell surface-bound and internalized fractions); assay type: cell-based, human; conditions: 37° C., specific uptake (HT-1080.wt subtracted)
Protocol: The cellular uptake was studied in vitro using intact cells seeded in 6-well plates overnight. […] At each investigated time point, the medium containing the unbound (free) radiotracer was removed, followed by two washing steps with ice-cold phosphate-buffered saline. The cells were then treated 2×5 min with ice-cold glycine solution (0.05 M, pH 2.8) to detach the cell surface-bound radiotracer (acid released). Afterwards, the cells containing the internalized radiotracer were detached with 1 M NaOH at 37° C. and collected for measurement. The amount of specific cell surface-bound and internalized radiotracer is expressed as percentage of the total applied activity, after subtracting the non-specific values.
The cells were then preconditioned in 360 μL of assay medium (MEM medium without supplements) at 37° C. for 60 min. 40 μL of a 2 nM solution of ^61Cu-labeled radioligand was added and the cells were incubated at 37° C. The cellular uptake was interrupted at different time points (15 min, 1 hour and 4 hours), by washing twice with ice-cold PBS. Cell surface-bound radioligand was obtained by washing cells twice with ice-cold glycine buffer (pH 2.8), followed by a collection of the internalized fraction with 1 M NaOH. The activity in each fraction was measured in a […] (Cobra II).

[2] = test system: Mice bearing FAP-positive and FAP-negative xenografts; assay: PET/CT imaging: remaining PET activity in the mouse body; assay type: in vivo
Protocol: The mice were euthanized by CO2 at 4 hours p.i., and static PET scans were acquired for 30 min.
PET/CT images were acquired using β-CUBE PET scanner system (Molecubes, Gent, Belgium), with a spatial resolution of 0.85 mm and an axial field-of-view of 13 cm. Dynamic PET scans were acquired for 60 min. All PET scans were decay corrected and reconstructed into a 192×192×384 matrix by an ordered subsets maximization expectation (OSEM) algorithm using 30 iterations, a voxel size of 400×400×400 μm a 15 min per frame. CT data was used to apply attenuation correction on the PET data. The CT was imaged supine, head first, using the NanoSPECT/CTTM scanner (Bioscan Inc.). Topograms and helical CT scans of the whole mouse were first acquired using the following parameters: X-ray tube current: 177 μA, X-ray tube voltage 45 kVp, 90 seconds and 180 frames per rotation, pitch 1. CT images were reconstructed using CTReco (version r1.146), with a standard filtered back projection algorithm (exact cone beam) and post-filtered (RamLak, 100% frequency cut-off), resulting in a pixel size of 0.2 mm. Co-registered PET/CT images were visualized using maximum intensity projection (MIP) with VivoQuant software (version 4.0).

[3] = test system: HT-1080.hFAP tumor-bearing mice; assay: Biodistribution studies in xenografted mice; assay type: in vivo; conditions: for Biodistribution: Spleen / Biodistribution: Heart / Biodistribution: Liver / Biodistribution: Lung / Biodistribution: Stomach / Biodistribution: HT-1080.wt / Biodistribution: HT-1080.hFAP / Biodistribution: Intestine / Biodistribution: Muscle / Biodistribution: Adrenal / Biodistribution: Blood / Biodistribution: Kidneys / Biodistribution: Pancreas: i.v.; for Biodistribution: HT-1080.wt: FAP-negative tumor; for Biodistribution: HT-1080.hFAP: FAP-positive tumor; for Accumulation in FAP-positive (HT-1080.hFAP) tumor and murine-FAP-positive tissues, such as the bone marrow (bones): xenografted mice, 1 h and 4 h p.i.
Protocol: The tumors were allowed to grow to an average volume of 100-200 mm^3.
Biodistribution Studies: The xenografted mice were randomized (n=5 per group) and injected intravenously via the tail vein with the ^61Cu-labeled radioligands (100 μL, […], 0.8-1MBq). Mice were euthanized 1 h and 4 h p.i. by CO2 asphyxiation. Organs of interest and blood were collected, rinsed of excess blood, blotted dry, weighed, and counted in a […]. The samples were counted against a suitably diluted aliquot of the injected solution as the standard and the results are expressed as the percentage of the injected activity per gram of tissue (% I.A./g) ±SD.

Biodistribution: Spleen ([3]; 1 hour p.i.)	Biodistribution: Heart ([3]; 4 hours p.i.)	Biodistribution: Liver ([3]; 4 hours p.i.)	Biodistribution: Lung ([3]; 4 hours p.i.)	Biodistribution: Spleen ([3]; 4 hours p.i.)	Biodistribution: Stomach ([3]; 4 hours p.i.)	Biodistribution: HT-1080.wt ([3]; 1 hour p.i.)	Biodistribution: HT-1080.wt ([3]; 4 hours p.i.)	Biodistribution: HT-1080.hFAP ([3]; 1 hour p.i.)	Biodistribution: HT-1080.hFAP ([3]; 4 hours p.i.)	Accumulation in FAP-positive (HT-1080.hFAP) tumor and murine-FAP-positive tissues, such as the bone marrow (bones) [3]	Biodistribution: Heart ([3]; 1 hour p.i.)	Biodistribution: Intestine ([3]; 1 hour p.i.)	Biodistribution: Liver ([3]; 1 hour p.i.)	SMILES	Cell surface fraction ([1]; 15 min)	Internalized fraction ([1]; 30 min)	Cell surface fraction ([1]; 60 min)	Internalized fraction ([1]; 60 min)	Cell surface fraction ([1]; 240 min)	Internalized fraction ([1]; 240 min)	other results
0.8 ± 0.1 % I.A./g	0.7 ± 0.1 % I.A./g	1.0 ± 0.2 % I.A./g	0.8 ± 0.2 % I.A./g	0.5 ± 0.1 % I.A./g	0.7 ± 0.1 % I.A./g	4.5 ± 0.6 % I.A./g	2.1 ± 0.5 % I.A./g	12.6 ± 1.5 % I.A./g	7.1 ± 3.0 % I.A./g	high accumulation	–	–	–	N#CC1CC(F)(F)CN1C(=O)CNC(=O)c1ccnc2ccc(NC(=O)CCC(=O)NCCNC(=O)CCC(C(=O)O)N3CCN(CC(=O)[O-])CCN(CC(=O)[O-])CC3)cc12.[61Cu+2] (centres unmarked) [[^61Cu]Cu-NODAGA-1]	1.2 ± 0.3 % of the applied activity	26.2 ± 3.5 % of the applied activity	1.4 ± 0.3 % of the applied activity	29.9 ± 1.8 % of the applied activity	1.3 ± 0.2 % of the applied activity	29.3 ± 1.8 % of the applied activity	Retention in the body (remaining PET activity 4 h p.i.), in words [2]: highest retention in the body
0.4 ± 0.1 % I.A./g	0.3 ± 0.0 % I.A./g	0.6 ± 0.1 % I.A./g	0.4 ± 0.0 % I.A./g	0.2 ± 0.0 % I.A./g	0.3 ± 0.1 % I.A./g	1.4 ± 0.2 % I.A./g	0.9 ± 0.1 % I.A./g	3.5 ± 1.0 % I.A./g	4.0 ± 0.6 % I.A./g	high accumulation	0.6 ± 0.1 % I.A./g	0.5 ± 0.1 % I.A./g	0.6 ± 0.1 % I.A./g	CN(C(=O)CCC(=O)NCCNC(=O)CCC(C(=O)O)N1CCN(CC(=O)[O-])CCN(CC(=O)[O-])CC1)c1ccc2nccc(C(=O)NCC(=O)N3CC(F)(F)CC3C#N)c2c1.[61Cu+2] (centres unmarked) [[^61Cu]Cu-NODAGA-2]	1.2 ± 0.6 % of the applied activity	20.7 ± 5.5 % of the applied activity	1.4 ± 0.5 % of the applied activity	27.0 ± 6.9 % of the applied activity	1.3 ± 0.5 % of the applied activity	28.3 ± 7.5 % of the applied activity	Biodistribution: Lung ([3]; 1 hour p.i.): 0.8 ± 0.1 % I.A./g; Biodistribution: Muscle ([3]; 1 hour p.i.): 0.9 ± 0.1 % I.A./g; Biodistribution: Stomach ([3]; 1 hour p.i.): 0.6 ± 0.1 % I.A./g; Biodistribution: Adrenal ([3]; 4 hours p.i.): 0.3 ± 0.1 % I.A./g; Biodistribution: Blood ([3]; 4 hours p.i.): 0.5 ± 0.1 % I.A./g; Biodistribution: Intestine ([3]; 4 hours p.i.): 0.3 ± 0.1 % I.A./g; Biodistribution: Kidneys ([3]; 4 hours p.i.): 1.0 ± 0.1 % I.A./g; Biodistribution: Muscle ([3]; 4 hours p.i.): 0.4 ± 0.1 % I.A./g; Biodistribution: Pancreas ([3]; 4 hours p.i.): 0.5 ± 0.0 % I.A./g
0.5 ± 0.1 % I.A./g	0.5 ± 0.0 % I.A./g	0.7 ± 0.1 % I.A./g	0.7 ± 0.1 % I.A./g	0.3 ± 0.0 % I.A./g	0.5 ± 0.0 % I.A./g	4.0 ± 2.2 % I.A./g	1.8 ± 0.3 % I.A./g	7.9 ± 0.9 % I.A./g	6.4 ± 2.0 % I.A./g	high accumulation	0.7 ± 0.1 % I.A./g	0.8 ± 0.2 % I.A./g	0.9 ± 0.1 % I.A./g	N#CC1CC(F)(F)CN1C(=O)CNC(=O)c1ccnc2ccc(NC(=O)CCC(=O)N3CCN(C(=O)CCC(C(=O)O)N4CCN(CC(=O)[O-])CCN(CC(=O)[O-])CC4)CC3)cc12.[61Cu+2] (centres unmarked) [[^61Cu]Cu-NODAGA-3]	0.9 ± 0.3 % of the applied activity	26.6 ± 4.9 % of the applied activity	1.2 ± 0.4 % of the applied activity	36.9 ± 5.3 % of the applied activity	1.4 ± 0.4 % of the applied activity	39.4 ± 4.8 % of the applied activity	Biodistribution: Stomach ([3]; 1 hour p.i.): 0.8 ± 0.1 % I.A./g; Biodistribution: Blood ([3]; 4 hours p.i.): 0.9 ± 0.0 % I.A./g; Biodistribution: Intestine ([3]; 4 hours p.i.): 0.4 ± 0.1 % I.A./g; Biodistribution: Kidneys ([3]; 4 hours p.i.): 1.0 ± 0.2 % I.A./g; Biodistribution: Pancreas ([3]; 4 hours p.i.): 0.9 ± 0.0 % I.A./g
0.4 ± 0.0 % I.A./g	0.2 ± 0.0 % I.A./g	0.4 ± 0.0 % I.A./g	0.3 ± 0.0 % I.A./g	0.2 ± 0.0 % I.A./g	0.2 ± 0.0 % I.A./g	1.7 ± 0.2 % I.A./g	0.6 ± 0.0 % I.A./g	7.4 ± 1.6 % I.A./g	3.0 ± 0.8 % I.A./g	high accumulation	0.6 ± 0.0 % I.A./g	0.5 ± 0.2 % I.A./g	0.6 ± 0.1 % I.A./g	CN(C(=O)CCC(=O)N1CCN(C(=O)CCC(C(=O)O)N2CCN(CC(=O)[O-])CCN(CC(=O)[O-])CC2)CC1)c1ccc2nccc(C(=O)NCC(=O)N3CC(F)(F)CC3C#N)c2c1.[61Cu+2] (centres unmarked) [[^61Cu]Cu-NODAGA-4]	1.0 ± 0.7 % of the applied activity	22.2 ± 7.4 % of the applied activity	1.4 ± 0.4 % of the applied activity	22.2 ± 5.1 % of the applied activity	0.9 ± 0.6 % of the applied activity	17.4 ± 4.4 % of the applied activity	Retention in the body (remaining PET activity 4 h p.i.), in words [2]: lowest value; Biodistribution: Lung ([3]; 1 hour p.i.): 0.9 ± 0.1 % I.A./g; Biodistribution: Muscle ([3]; 1 hour p.i.): 0.8 ± 0.2 % I.A./g; Biodistribution: Stomach ([3]; 1 hour p.i.): 0.5 ± 0.0 % I.A./g; Biodistribution: Adrenal ([3]; 4 hours p.i.): 0.5 ± 0.1 % I.A./g; Biodistribution: Blood ([3]; 4 hours p.i.): 0.4 ± 0.1 % I.A./g; Biodistribution: Intestine ([3]; 4 hours p.i.): 0.3 ± 0.1 % I.A./g; Biodistribution: Muscle ([3]; 4 hours p.i.): 0.4 ± 0.1 % I.A./g; Biodistribution: Pancreas ([3]; 4 hours p.i.): 0.4 ± 0.1 % I.A./g
